Data reported in the supplement of paper PMC10307832.

Key:
Experiment in all cases: relative viability (nuclei count vs DMSO), 5 days (fraction); higher = more cells survive
[1] = compound: COc1cc([C@@H]2c3cc4c(cc3[C@@H](O[C@@H]3O[C@@H]5CO[C@@H](C)O[C@H]5[C@H](O)[C@H]3O)[C@H]3COC(=O)[C@H]23)OCO4)cc(OC)c1O [Etoposide] + CC(=O)Nc1cccc(-n2c(=O)n(C3CC3)c(=O)c3c(Nc4ccc(I)cc4F)n(C)c(=O)c(C)c32)c1 [Trametinib] (partner 0.02 µM)
Outline: (§1)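 A single step with final 0.05% Triton X-100, 1% formaldehyde and 1 ug/ml Hoechst fixed the cells and stained nuclei 5 days after treatment. Lung cancer cell lines in 1536-well plates had been treated by pin tool the day after seeding with one drug alone or a fixed anchor-drug dose plus five library-drug doses (not always all listed) in √10 steps, and nuclei were counted on 4× images. Relative viability is the ratio of nuclei in treated wells to nuclei in vehicle wells, taken as the median of duplicate plates.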

[2] = compound: COc1cc([C@@H]2c3cc4c(cc3[C@@H](O[C@@H]3O[C@@H]5CO[C@@H](C)O[C@H]5[C@H](O)[C@H]3O)[C@H]3COC(=O)[C@H]23)OCO4)cc(OC)c1O [Etoposide] + Nc1ncn([C@H]2C[C@H](O)[C@@H](CO)O2)c(=O)n1 [Decitabine] (partner 2 µM)
Outline: as §1

[3] = compound: CC1=C(N=C(N=C1N)[C@H](CC(=O)N)NC[C@@H](C(=O)N)N)C(=O)N[C@@H]([C@H](C2=CN=CN2)OC3C(C(C(C(O3)CO)O)O)OC4C(C(C(C(O4)CO)O)OC(=O)N)O)C(=O)N[C@H](C)[C@H]([C@H](C)C(=O)N[C@@H]([C@@H](C)O)C(=O)NCCC5=NC(=CS5)C6=NC(=CS6)C(=O)NCCC[S+](C)C)O [Bleomycin] + CCNC(=O)c1noc(-c2cc(C(C)C)c(O)cc2O)c1-c1ccc(CN2CCOCC2)cc1 [Luminespib] (partner 0.01 µM); conditions: main component drawn
Outline: as §1

[4] = compound: COc1cc([C@@H]2c3cc4c(cc3[C@@H](O[C@@H]3O[C@@H]5CO[C@@H](C)O[C@H]5[C@H](O)[C@H]3O)[C@H]3COC(=O)[C@H]23)OCO4)cc(OC)c1O [Etoposide] + C[C@]1(O)C[C@@H](c2nc(-c3ccc4ccc(-c5ccccc5)nc4c3)c3c(N)nccn32)C1 [Linsitinib] (partner 1 µM)
Outline: as §1

Cell Line	relative viability ([1]; first compound 0.01 µM)	relative viability ([1]; first compound 0.03162 µM)	relative viability ([1]; first compound 0.1 µM)	relative viability ([1]; first compound 0.3162 µM)	relative viability ([1]; first compound 1 µM)	relative viability ([2]; first compound 0.01 µM)	relative viability ([2]; first compound 0.03162 µM)	relative viability ([2]; first compound 0.1 µM)	relative viability ([2]; first compound 0.3162 µM)	relative viability ([2]; first compound 1 µM)	relative viability ([3]; first compound 0.01 µM)	relative viability ([3]; first compound 0.03162 µM)	relative viability ([3]; first compound 0.1 µM)	relative viability ([3]; first compound 0.3162 µM)	relative viability ([3]; first compound 1 µM)	relative viability ([4]; first compound 0.01 µM)	relative viability ([4]; first compound 0.03162 µM)	relative viability ([4]; first compound 0.1 µM)	relative viability ([4]; first compound 0.3162 µM)	relative viability ([4]; first compound 1 µM)
HCC-44	1.01	1.21	1.09	0.97	0.739	1	1.06	0.984	0.905	0.55	0.39	0.277	0.261	0.187	0.239	0.61	0.745	0.729	0.535	0.267
HCC-78	0.585	0.759	0.648	0.403	0.299	0.669	0.697	0.429	0.317	0.265	–	–	–	–	–	0.436	0.525	0.255	0.322	0.181
HCC-366	0.338	0.36	0.249	0.0581	0.0512	0.357	0.334	0.189	0.102	0.0877	–	–	–	–	–	0.474	0.678	0.337	0.166	0.0566
HCC-827	0.497	0.525	0.315	0.23	0.187	0.294	0.328	0.315	0.205	0.182	0.525	0.576	0.377	0.39	0.233	0.983	0.919	0.931	0.659	0.33
HOP-62	0.348	0.395	0.325	0.343	0.316	0.227	0.199	0.212	0.207	0.179	0.66	0.705	0.462	0.254	0.193	0.963	1.05	0.657	0.631	0.269
IA-LM	–	–	–	–	–	–	–	–	–	–	–	–	–	–	–	0.584	0.596	0.348	0.506	0.527
LC-2-ad	0.884	0.902	0.988	0.743	0.689	0.778	0.682	0.922	0.741	0.566	0.68	0.572	0.563	0.29	0.262	0.809	0.976	0.863	0.624	0.248
LCLC-97TM1	0.22	0.218	0.174	0.126	0.115	0.253	0.222	0.302	0.129	0.11	0.519	0.635	0.51	0.269	0.187	–	0.193	0.122	0.151	0.1
LCLC-103H	0.607	0.748	0.742	0.64	0.582	0.763	0.835	0.766	0.71	0.599	0.849	0.826	0.747	0.496	0.333	0.998	1.12	0.93	1.02	0.902
LK-2	0.688	0.861	0.498	0.438	0.2	0.289	0.302	0.159	0.177	0.171	0.172	0.15	0.185	0.161	0.169	0.522	0.442	0.295	0.442	0.18
NCI-H522	0.756	0.875	0.744	0.703	0.649	0.702	0.655	0.502	0.872	0.571	0.775	0.66	0.508	0.319	0.414	–	–	–	–	–
NCI-H1299	–	–	–	–	–	–	–	–	–	–	–	–	–	–	–	0.973	1.03	1	0.879	0.7
NCI-H1563	–	–	–	–	–	–	–	–	–	–	0.512	0.535	0.479	0.487	0.465	1.17	1.05	0.957	0.673	0.612
NCI-H1623	–	–	–	–	–	–	–	–	–	–	0.396	0.474	0.525	0.343	0.31	–	–	–	–	–
NCI-H1648	–	0.552	0.362	0.523	0.416	–	0.513	0.454	0.466	0.341	–	–	–	–	–	–	–	–	–	–
NCI-H1650	0.459	0.541	0.458	0.257	0.143	0.346	0.314	0.355	0.195	0.182	0.172	0.213	0.213	0.18	0.188	–	–	–	–	–
NCI-H1703	–	–	–	–	–	–	–	–	–	–	–	–	–	–	–	0.672	1.04	0.642	0.641	0.329
NCI-H2170	0.843	1.03	–	0.877	0.723	0.463	0.449	–	0.386	0.342	0.604	0.494	0.593	0.355	0.515	–	–	–	–	–
NCI-H2228	0.485	0.576	0.32	0.279	0.168	–	–	–	–	–	0.149	0.129	0.186	0.128	0.15	0.535	0.57	0.728	0.627	0.462
NCI-H2342	0.777	0.881	0.505	0.355	0.344	0.599	0.677	0.477	0.373	0.368	0.646	0.665	0.693	0.523	0.525	–	–	–	–	–
SW 900	0.741	0.653	0.649	0.354	0.25	0.443	0.428	0.361	0.297	0.269	0.187	0.166	0.199	0.185	0.183	–	–	–	–	–
